A word on the IC50: it is the concentration needed to halve the response being measured.

Molecules are shown by their SMILES.

The target in this experiment is recombinant CaMKIIδ (Homo sapiens (Human), UniProt Q13557). As to the kind of experiment: CaMKIIδ biochemical assay (HTRF). To be noted: 10 pM CaMKIIδ, 110 nM calmodulin, 12 μM ATP, 1 hour; read-out: CAMKIID-HTRF-384V2 (IC50 - nM). As for the experimental part:
CaMKIIδ Biochemical Assay
The biochemical activity of recombinant CaMKIIδ was measured by monitoring the phosphorylation of a target peptide using Homogenous Time Resolved Fluorescence (HTRF) technology from CisBio Bioassays.
For orientation: TR-FRET usually uses a lanthanide donor and a delayed reading to cut background.
Regarding `COC1CN(c2cc(C(=O)N3[C@H]4CCNC[C@@H]3CC4)cc(-c3cnn4ccc(-c5cccs5)nc34)n2)C1` [Example 326, ((1S,6R)-3,9-diazabicyclo[4.2.1]nonan-9-yl)(2-(3-methoxyazetidin-1-yl)-6-(5-(thiophen-2-yl)pyrazolo[1,5-a]pyrimidin-3-yl)pyridin-4-yl)methanone], the IC50 came out at 3.29 nM.
As for `COC1CN(c2cc(C(=O)N3CC[C@H](N)C3)cc(-c3cnn4ccc(-c5ccccc5)nc34)n2)C1` [Example 328, (S)-(3-aminopyrrolidin-1-yl)(2-(3-methoxyazetidin-1-yl)-6-(5-phenylpyrazolo[1,5-a]pyrimidin-3-yl)pyridin-4-yl)methanone], the figure is 91.9 nM; as for `COC1CN(c2cc(C(=O)N3CC4CCC(C3)NC4)cc(-c3cnn4ccc(-c5ccccc5)nc34)n2)C1` (centres unmarked) [Example 329, (-3,6-diazabicyclo[3.2.2]nonan-3-yl)(2-(3-methoxyazetidin-1-yl)-6-(5-phenylpyrazolo[1,5-a]pyrimidin-3-yl)pyridin-4-yl)methanone], 14.1 nM; as for `CCN(CC)[C@@H](C)CNC(=O)c1cc(-c2cnn(C)c2)nc(-c2cnn3ccc(-c4cccs4)nc23)c1` [Example 331, (S)—N-(2-(diethylamino)propyl)-2-(1-methyl-1H-pyrazol-4-yl)-6-(5-(thiophen-2-yl)pyrazolo[1,5-a]pyrimidin-3-yl)isonicotinamide], 0.08 nM.
As to `CCN(CC)[C@@H](C)CNC(=O)c1cc(-c2c(C)n[nH]c2C)nc(-c2cnn3ccc(-c4cccs4)nc23)c1` [Example 332, (S)—N-(2-(diethylamino)propyl)-2-(3,5-dimethyl-1H-pyrazol-4-yl)-6-(5-(thiophen-2-yl)pyrazolo[1,5-a]pyrimidin-3-yl)isonicotinamide], the IC50 stood at 0.24 nM.
Then `CCN(CC)[C@@H](C)CNC(=O)c1cc(-c2c[nH]nc2C)nc(-c2cnn3ccc(-c4cccs4)nc23)c1` [Example 333, (S)—N-(2-(diethylamino)propyl)-2-(3-methyl-1H-pyrazol-4-yl)-6-(5-(thiophen-2-yl)pyrazolo[1,5-a]pyrimidin-3-yl)isonicotinamide], with 0.22 nM; and `CCN(CC)[C@@H](C)CNC(=O)c1cc(-c2c[nH]nc2C(F)(F)F)nc(-c2cnn3ccc(-c4cccs4)nc23)c1` [Example 334, (S)—N-(2-(diethylamino)propyl)-2-(5-(thiophen-2-yl)pyrazolo[1,5-a]pyrimidin-3-yl)-6-(3-(trifluoromethyl)-1H-pyrazol-4-yl)isonicotinamide], with 0.19 nM; and `CCN(CC)[C@@H](C)CNC(=O)c1cc(-c2cnoc2)nc(-c2cnn3ccc(-c4cccs4)nc23)c1` [Example 335, (S)—N-(2-(diethylamino)propyl)-2-(isoxazol-4-yl)-6-(5-(thiophen-2-yl)pyrazolo[1,5-a]pyrimidin-3-yl)isonicotinamide], with 0.29 nM.
As for `CCN(CC)[C@@H](C)CNC(=O)c1cc(-c2cc[nH]n2)nc(-c2cnn3ccc(-c4cccs4)nc23)c1` [Example 336, (S)—N-(2-(diethylamino)propyl)-2-(1H-pyrazol-3-yl)-6-(5-(thiophen-2-yl)pyrazolo[1,5-a]pyrimidin-3-yl)isonicotinamide], the figure is 0.1 nM.
Then `CCN(CC)[C@@H](C)CNC(=O)c1cc(-c2cnn3ccc(-c4cccs4)nc23)nc(-c2cnn3ccc(-c4cccs4)nc23)c1` [Example 337, (S)—N-(2-(diethylamino)propyl)-2,6-bis(5-(thiophen-2-yl)pyrazolo[1,5-a]pyrimidin-3-yl)isonicotinamide], with 0.33 nM; and `CCN(CC)[C@@H](C)CNC(=O)c1cc(-c2nccs2)nc(-c2cnn3ccc(-c4cccs4)nc23)c1` [Example 338, (S)—N-(2-(diethylamino)propyl)-2-(thiazol-2-yl)-6-(5-(thiophen-2-yl)pyrazolo[1,5-a]pyrimidin-3-yl)isonicotinamide], with 0.86 nM.

The record behind these values is US10100058B2, “Fused heterocyclic compounds as CaM kinase inhibitors” (Gilead Sciences, Inc., priority 2016, dated 2018).
